As usually defined, the melting point is the temperature, or range, at which the solid turns liquid.

89 compounds from a melting point compilation (Tetko et al.; mined from patent text by program, amines drawn as free bases though some values may be those of a salt) can be followed below.

Molecules are shown by their SMILES. A value given as a limit tells only on which side of the number the result lay.

As for `CCOc1cc2c(c3c1OC(C)(C)C3)C(c1cccc(NC(N)=O)c1)=NC(C)(C)C2`, the melting point fell in the range of 202 to 205 °C. In the case of `Cc1cc(C)cc(S(=O)(=O)c2nnc(C(F)(F)F)s2)c1` it was 110 °C; in that of `COc1ccc(C(=O)Nc2c(Cl)cncc2Cl)c2cc(C(=O)N3CCN(C)CC3)oc12`, 224 to 225 °C; in that of `CC(C)=C(C=O)CC(=O)O`, 102 °C. Turning to `N=C(N)NCCCCCC(=O)Oc1ccc2cc(C(=N)N)ccc2c1`, the melting point is 136 °C.

For `c1ccc(-c2ccc3nc(-c4ccccc4)oc3n2)cc1`, the melting point is 151 to 152 °C. Consider `CCC(=O)NCc1nc(-c2cc(C(C)(C)C)c(O)c(C(C)(C)C)c2)cs1`, for which the melting point fell in the range of 82 to 83.5 °C.

The compound `COc1ccc2c(n1)C1(CO2)C(=O)N(Cc2cnc(C(C)C)s2)c2cccc(Br)c21` (centres undefined) had a melting point of 158 to 160 °C. In the case of `Cc1cc(N)cc(C)c1C(=O)Cc1ccccc1C(F)(F)F` it was 168 °C. For the compound `CC(C)c1ccc2c(c1)C(=O)N(C)C(c1ccc(C(C)(C)C)cc1)C2C(=O)O` (centres undefined), the melting point was 204 to 207 °C. `CCOC(=O)Cn1c(CC)nc2nc3cc(Cl)ccc3nc21` yielded a melting point of 174 to 175 °C. The result for `CN1C[C@@H](C(=O)OC(C)(C)C)N(C(=O)OCc2ccccc2)C1=O` reads 102 to 103 °C; that for `CN=C(NC)Nc1ccccc1-c1ccccc1`, 101 to 102 °C.

`CC1=C([N+](=O)[O-])C(c2ccccc2C(F)(F)F)c2c[nH]nc2N1` (centres undefined) displayed a melting point of 257 to 258 °C. With `Cc1cn2ccccc2c1S(=O)(=O)c1ccc(O)cc1`, the melting point stood at 177 °C. As for `CN1CCN(CCCNc2ncc3cc(-c4c(Cl)cccc4Cl)c(NC(=O)Nc4ccc(Cl)cc4)nc3n2)CC1`, the melting point fell in the range of 176 to 181 °C. In the case of `O=c1[nH]c(=O)n(CCCCCl)c2ccccc12` it was 127 to 128 °C. In the case of `O=C1CCc2ccc(OCCCCN3CCCN(c4cccc(Cl)c4Cl)CC3)cc2N1` it was 88 to 89 °C; in that of `COc1cc2c3c(c1)c(=O)c(Cc1cccnc1)cn3-c1cc(Br)ccc1S2`, 169 to 173 °C.

Consider `[N-]=[N+]=NS(=O)(=O)c1ccccc1[N+](=O)[O-]`, for which the melting point was in the range of 73 to 74 °C. The result for `O=C(O)C1=Cc2c(F)cccc21` reads 81 to 83 °C. On to `CCC(=O)NCCC1CCc2cc(Br)c3c(c21)CC(C)(C)O3` (centres undefined), for which the melting point was 98 to 101 °C. For the compound `CC1CCN(CCCC(=O)c2ccc3c(c2)Cc2cc(C(=O)CCCN4CCC(C)CC4)ccc2-3)CC1`, the melting point was in the range of 180 to 181 °C. `COC(C(=O)O)c1ccc2c(c1)C(C)(C)CCC2(C)C` (racemic) came in with a melting point of 135 to 136 °C. For the compound `CCN(CC)c1ccc(C2(N(c3ccccc3)c3ccc(N(C)C)cc3)OC(=O)c3ccccc32)c(C)c1` (centres undefined), the melting point lay within 154 to 156 °C.

As for `OCc1cn(-c2ccc(C(F)(F)F)cn2)nc1C1CCCCC1`, the melting point fell in the range of 138 to 139 °C. In the case of `CCCn1c(=O)c2[nH]c(/C=C/c3cc(OC)c(OC)cc3Br)nc2n(CCC)c1=O` it was 248 to 250 °C. In turn, `N#Cc1cn(Cc2ccccc2)nn1` gave a melting point of 78 to 79 °C.

Compound `CCN(CC)CCNC(=O)N1CCc2cc(OC)c(OC)cc2C1c1ccccc1` (centres undefined) showed a melting point of 97 to 98 °C. The result for `CC1(C)COC(=N)N1c1nc(-c2ccc(C#N)cc2)cs1` reads 158 to 161 °C; that for `COC(=O)C(Cc1cccc(-c2nc(=O)c3ccccc3s2)c1)NC(=O)c1ccccc1` (centres undefined), 131 °C. Compound `COc1cccc(CC(=O)O)c1OCCCCc1cn(-c2ccc(C(F)(F)F)cn2)nc1C(C)C` yielded a melting point of 144 to 145 °C. The result for `CCC(Oc1ccc(Cl)c(C)c1)C(=O)NCc1ccccc1` (centres undefined) reads 95 to 97 °C; that for `COCCOCCOc1cccc2c1C1(COc3cc4c(cc31)OCCO4)C(=O)N2C` (centres undefined), 109 to 110 °C. The result for `COc1ccc(C2=NN(CCCCN)C(=O)[C@H]3CC=CC[C@@H]23)cc1OC` (relative stereo) reads 108 to 109 °C.

`COC(=O)C(C#N)c1c[nH]c2ccc(OC)cc12` (centres undefined): the melting point was 98 to 100 °C. The result for `CCOC(Oc1cc(Cl)cc(Cl)c1)C(=O)NC(C)(C)C` (centres undefined) reads 69 to 71 °C; that for `CCCCCCCCCCCCN(c1nc(Cl)nc(Cl)n1)c1nc(Cl)nc(Cl)n1`, 50 to 53 °C. The result for `O=C1c2cccc(O)c2CN1C1CCN(CCC(c2ccccc2)c2ccccc2)CC1` reads 114 to 118 °C; that for `O=c1[nH]c2cc(Cl)ccc2c(=O)n1Cc1ccc(Br)cc1F`, 288 to 289 °C. In the case of `O=C(c1ccccc1Cl)c1ccccc1I` it was 62 to 64 °C; in that of `CCCn1nc(SC2CCC(CC(=O)O)CC2)c(C(=O)O)c1Cc1cc2c(cc1Cl)OCO2` (centres undefined), 178 °C. `O=C(NNC(=S)NNC(=O)c1ccccc1)c1ccccc1`: the melting point lay in the range of 177 to 179 °C.

`O=C(CCc1ccccn1)Nc1cc(N2CC(c3ccccc3)OC2=O)ccn1` (centres undefined) came in with a melting point of 169 to 171 °C.

For `COc1ccc(-c2cc(Nc3ccc(NS(C)(=O)=O)cc3)nc(C)n2)cc1OC`, the melting point lay in the range of 180 to 185 °C. In the case of `C=CCOc1ccc(C(=O)C=Cc2cc(OC)ccc2OC)cc1` it was 86 to 87 °C. Regarding `O=C(c1ccc(F)cc1)c1ccc2n1CCC2C(=O)O` (centres undefined), the melting point came out at 165 °C.

For `CC(C)(C)OC(=O)n1cccc1-c1ccc2c(c1)C1(CCCC1)C(=O)N2`, the melting point is 179 to 180 °C.

Turning to `CC(C)(C)C(=O)Nc1ccc(O)cc1`, the melting point lay in the range of 168 to 170 °C. Take `CCC(=O)COc1nn(CC(=O)CC)c(-c2ccc(F)cc2)c1-c1ccc(S(C)(=O)=O)cc1`: the melting point was in the range of 56 to 58 °C.

`CCC1(CC)OC(=O)Nc2ccc(-c3cccc([N+](=O)[O-])c3)cc21` yielded a melting point of 193 to 194 °C. In the case of `C1=CC2=NC=NC23CCNCC3N1` (centres undefined), the melting point was in the range of 94 to 95 °C.

`CCCCc1oc2ccccc2c1-c1ncc(-c2ccc3cc(OC)ccc3c2)o1`: the melting point was 169 to 171 °C. The result for `CN1c2ccccc2CC(=O)c2ccccc21` reads 92 to 93 °C. In the case of `C=C(Cc1ccccc1)C(=O)O` it was 61 to 62 °C. In the case of `Cn1cc(-c2cc3cccnc3[nH]2)c2cc(OCC(O)CO)ccc21` (centres undefined) it was 182 to 185 °C; in that of `Cc1cc(C(N)=O)c(NC(=O)CCC(F)(F)F)s1`, 151 to 153 °C. The compound `CCC(C)OC1OC(C(O)N(CC(C)C)C(=O)N(CCCl)N=O)C(O)C1O` (centres undefined) returned a melting point of 80 to 82 °C.

In turn, `C[C@@H](NC(=O)c1c[nH]c2ncc(-c3nccc4ccccc34)nc12)C(=O)N1CC(C#N)C1` returned a melting point of 180 to 185 °C. In the case of `COc1ccc2cc(Br)cc(C)c2n1` it was 89 to 91 °C; in that of `CCCN(CCC)c1nccc2ccc(C(=O)N[C@@H](Cc3cc(F)cc(F)c3)[C@H](O)CNCc3cccc(CC)c3)cc12`, 142 to 151 °C; in that of `COc1ccc2c(c1)Sc1c(cc(OC)c(OC(=O)c3ccccc3)c1Br)N2`, 202 to 203 °C.

For the compound `COc1cccc(OC)c1C(=O)C=Cc1ccccc1`, the melting point was in the range of 123 to 124 °C. The compound `N#Cc1cnc2cc(/C=C/c3ccncc3)ccc2c1Nc1ccc(Cl)cc1Cl` returned a melting point of 240 to 242 °C. In the case of `COC(=O)c1cc(I)cc(C)c1OC` it was 55 to 57 °C; in that of `O=C(CCC(Cl)(Cl)Cl)Nc1cccc(-c2ccnc3c(C(=O)c4cccs4)cnn23)c1`, 189 to 191 °C; in that of `O=C(Nc1cc(CCCS(=O)(=O)c2ccc(Cl)cc2)ccc1OCc1nnn[nH]1)c1cccc(OCc2nc3ccccc3s2)c1`, 189 to 191 °C. In the case of `CC(Cl)C(=O)NOCc1ccccc1` (centres undefined) it was 70.1 to 72.8 °C; in that of `Clc1ccc(Cn2cnc3c(Cl)ncnc32)cc1Cl`, 130 to 133 °C; in that of `COc1cc(C(=O)Nc2c(Cl)cncc2Cl)cc2c1oc1ccccc12`, 165 to 166 °C. The compound `Cc1cn(C[C@H]2CN(c3ccc(-c4ccc(C#N)nc4)c(F)c3)C(=O)O2)nn1` showed a melting point of 210 to 212 °C. The result for `CCCN(CCC)C(=O)n1cnc(S(=O)C(C)C)n1` (centres undefined) reads 15 to 20 °C; that for `O=C1CCC(c2ccccc2)(c2ccccc2)[C@@H]2CN(C(=O)Cc3ccccc3N3CCCC3)C[C@H]12` (racemic), 178 °C; that for `CCOC(=O)C1=C(c2ccc(-c3ocnc3C)cc2)NC(C)=C(C(=O)Nc2ccccn2)C1c1ccccc1Cl` (centres undefined), 176 to 179 °C.

The compound `O=C(O)c1c[nH]c(Br)c1-c1ccc(Cl)cc1` yielded a melting point above 205 °C.

In turn, `CC(O)CCCCCCCCc1ccc(O)c(O)c1` (centres undefined) yielded a melting point of 43 to 46 °C. In the case of `COc1ccc(N=C(Cl)c2ccc(OC)cc2)cc1` it was 116 °C; in that of `CCC(CC)(CC(=O)Nc1cccc(OCc2ccc3ccc(C(F)(F)F)cc3n2)c1)C(=O)O`, 85 to 86 °C. The result for `CCC(C)(Oc1ccc(F)cc1F)C(=O)Nc1nc(CC(=O)O)cs1` (centres undefined) reads 148 to 149 °C; that for `CNC(=O)N(O)C(C)C#Cc1ccc(Br)cc1` (centres undefined), 145 to 146 °C; that for `CSc1ccc(Oc2ccc(Cl)c(Cl)c2)nc1C#N`, 156 to 158 °C.

In turn, `O=S(=O)(c1ccc(Cl)cc1)N1CCCC1c1cccc(Cl)c1` (racemic) gave a melting point of 99 °C. Regarding `COc1ccc(CC(C)NC(=O)N(C)O)cc1OC` (centres undefined), the melting point was 78 to 80 °C.

Take `Nc1nc2ncn([C@H]3C=C[C@@H](O)C3)c2c(=O)[nH]1` (racemic): the melting point is above 310 °C.

Compound `Clc1ccc(OCc2ccc3ccccc3n2)cc1Cl` displayed a melting point of 80.5 to 82 °C. As to `NC(c1ccccc1)c1ccc(C(N)c2ccc(C(N)c3ccccc3)cc2)cc1` (centres undefined), the melting point fell in the range of 182 to 185 °C. In the case of `O=C(Cn1cncc(NC(=O)OCc2ccccc2)c1=O)NC(Cc1ccccc1)C(=O)C(F)(F)F` (centres undefined) it was 132 to 134 °C. With `CC1(C)CCCc2cc3c(cc21)C(C)(C)CCC3(C)C`, the melting point was in the range of 94 to 95 °C. In the case of `O=C1CC(=O)N(c2ccccc2)c2cc(Cl)ccc2N1CC1CC1` it was 215 to 218 °C.
